Data published in the supplement of paper PMC10307832.

Assays:
Assay in all cases: relative viability (nuclei count vs DMSO), 5 days (fraction); higher = more cells survive
[1] = compound: Cc1ccc(C(=O)Nc2ccc(CN3CCN(C)CC3)c(C(F)(F)F)c2)cc1C#Cc1cnc2cccnn12 [Ponatinib] + Nc1ncn([C@H]2C[C@H](O)[C@@H](CO)O2)c(=O)n1 [Decitabine] (partner 2 µM)
Outline: (§1)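 Dosing by pin tool came one day after lung cancer cell lines were seeded in 1536-well plates, using either one drug or a fixed anchor-drug dose plus five library-drug doses (not always all listed) in √10 steps. After 5 days, nuclei were counted on 4× images. Relative viability is treated-well nuclei count divided by vehicle-well nuclei count, and values are medians of duplicate plates.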

[2] = compound: Cc1ccc(Nc2nccc(N(C)c3ccc4c(C)n(C)nc4c3)n2)cc1S(N)(=O)=O [Pazopanib] + CC1(C)CCC(c2ccc(Cl)cc2)=C(CN2CCN(c3ccc(C(=O)NS(=O)(=O)c4ccc(N[C@H](CCN5CCOCC5)CSc5ccccc5)c(S(=O)(=O)C(F)(F)F)c4)cc3)CC2)C1 [Navitoclax] (partner 0.5 µM)
Outline: as §1

[3] = compound: Cc1ccc(C(=O)Nc2ccc(CN3CCN(C)CC3)c(C(F)(F)F)c2)cc1C#Cc1cnc2cccnn12 [Ponatinib] + CC(=O)Nc1cccc(-n2c(=O)n(C3CC3)c(=O)c3c(Nc4ccc(I)cc4F)n(C)c(=O)c(C)c32)c1 [Trametinib] (partner 0.02 µM)
Outline: as §1

[4] = compound: Cc1ccc(C(=O)Nc2ccc(CN3CCN(C)CC3)c(C(F)(F)F)c2)cc1C#Cc1cnc2cccnn12 [Ponatinib] + N=C(N)NC(=N)NCCc1ccccc1 [Phenformin] (partner 250 µM)
Outline: as §1

Cell Line	relative viability ([1]; first compound 0.002 µM)	relative viability ([1]; first compound 0.006325 µM)	relative viability ([1]; first compound 0.06325 µM)	relative viability ([1]; first compound 0.2 µM)	relative viability ([2]; first compound 0.01 µM)	relative viability ([2]; first compound 0.03162 µM)	relative viability ([2]; first compound 0.1 µM)	relative viability ([2]; first compound 0.3162 µM)	relative viability ([2]; first compound 1 µM)	relative viability ([3]; first compound 0.002 µM)	relative viability ([3]; first compound 0.006325 µM)	relative viability ([3]; first compound 0.06325 µM)	relative viability ([3]; first compound 0.2 µM)	relative viability ([4]; first compound 0.002 µM)	relative viability ([4]; first compound 0.006325 µM)	relative viability ([4]; first compound 0.06325 µM)	relative viability ([4]; first compound 0.2 µM)
SK-MES-1	0.392	0.334	0.419	0.372	1.29	1.32	1.42	1.3	1.15	0.629	0.693	0.511	0.454	0.676	0.65	0.716	0.548
EPLC-272H	0.334	0.399	0.416	0.326	1.09	1.09	1.21	1.16	1.1	0.271	0.309	0.345	0.22	0.305	0.336	0.292	0.316
NCI-H1793	0.451	0.526	0.561	0.499	–	0.421	0.387	0.463	0.542	0.395	0.511	0.344	0.347	0.33	0.324	0.397	0.326
NCI-H2126	0.587	0.585	0.667	0.545	0.798	0.779	0.848	0.817	0.881	0.564	0.576	0.691	0.578	0.509	0.544	0.558	0.543
LXF-289	0.388	0.359	0.36	0.379	0.994	1.03	0.95	0.934	0.991	0.651	0.649	0.633	0.641	0.513	0.545	0.525	0.445
NCI-H2009	0.399	0.343	0.354	0.372	1.19	1.18	1.2	1.11	0.979	0.284	0.253	0.189	0.165	0.426	0.432	0.522	0.467
NCI-H3122	0.457	0.545	0.472	0.411	1.09	1.05	1.05	1.08	1.13	0.256	0.199	0.241	0.209	0.301	0.378	0.384	0.356
NCI-H1755	0.701	0.73	0.719	0.639	0.852	0.937	1.01	1	0.991	0.755	0.841	0.761	0.763	0.561	0.599	0.614	0.565
HCC-78	0.653	0.757	0.668	0.577	0.493	0.813	0.796	0.828	0.694	0.684	0.673	0.808	0.638	0.601	0.614	0.673	0.669
LOU-NH91	0.778	0.788	0.868	0.766	0.718	0.701	0.732	0.843	0.766	0.803	0.807	0.886	0.764	0.683	0.73	0.766	0.676
NCI-H322M	0.681	0.688	0.736	0.629	1.03	1.19	1.27	1.36	1.24	0.516	0.555	0.553	0.531	0.746	0.734	0.799	0.728
HCC-827	0.327	0.385	0.338	0.326	1.06	1.02	1.11	1.07	0.98	0.526	0.558	0.558	0.459	0.411	0.429	0.416	0.348
SW 1573	0.463	0.458	0.695	0.46	1.16	1.06	1.02	1.2	1.28	0.6	0.595	0.591	0.577	0.35	0.392	0.292	0.405
NCI-H1975	0.386	0.425	0.413	0.437	1	1.2	1.17	1.12	1.02	0.367	0.445	0.469	0.294	0.365	0.395	0.439	0.398
NCI-H1651	0.613	0.704	0.615	0.665	1.1	1.16	1.17	1.12	1.16	0.825	0.827	0.918	0.809	0.301	0.373	0.299	0.265
NCI-H460	0.533	0.471	0.559	0.454	0.849	1.19	1.34	1.16	1.15	0.192	0.128	0.268	0.1	0.489	0.501	0.549	0.573
LCLC-97TM1	0.205	0.242	0.214	0.248	–	0.365	0.427	0.547	0.655	0.186	0.208	0.168	0.162	0.489	0.432	0.467	0.411
NCI-H838	0.417	0.475	0.458	0.487	1.1	1.22	1.21	1.24	1.26	0.461	0.554	0.529	0.424	0.567	0.715	0.527	0.442
